Tests used:
[1] = system: non-insulin dependent diabetes mellitus (NIDDM); experiment: Glycemic control (FSG, HbA1c, responders) in 52-week double-blind clinical study; assay type: in vivo, patients; conditions: for Fasting Serum Glucose, Adjusted Mean Change From Baseline (SE) / Hemoglobin A1c, Adjusted Mean Change From Baseline (SE): glyburide monotherapy (active control)
Excerpt: The method of treating diabetes employing a combination of a sulfonylurea and a glitazone has been established in a long-term controlled clinical evaluation. The study determined the efficacy and safety of troglitazone alone and in combination with the sulfonylurea glyburide for the treatment of non-insulin dependent diabetes mellitus (NIDDM). This study targeted the segment of the NIDDM population in which the disease state has progressed to a point where maximum doses of sulfonylureas no longer produce adequate glycemic control. […] Since the unstimulated (absence of sulfonylurea) insulin secretory capacity of the beta cells is very low in this population, reversing insulin resistance alone would be of partial benefit. Therefore, maintaining a level of stimulated insulin secretion with a sulfonylurea while adding troglitazone to improve insulin sensitivity could provide a level of glycemic control unattainable by either medication alone. […] Long-term safety was also an objective of this study, assessed by adverse events and clinical laboratory data. This was a 12-month, double-blind, randomized, parallel-group, active-control, multicenter study design (FIG. 1). […] The primary efficacy parameters included endpoints related to glucose homeostasis: FSG and HbA1c. The change from baseline in these parameters at Week 52 compared to active control (glyburide) was the primary measure of efficacy. For patients terminating early from the study, their last observation was carried forward (LOCF) to Week 52. A decrease in these parameters was indicative of an improvement in glycemic control. Efficacy analysis was performed on 2 patient populations, intent-to-treat and completers. […] Patients withdrawing from the study before Week 52 were included in the analysis using the LOCF procedure; the last measurement on treatment was substituted for the missing Week 52 measurement. The intent-to-treat patient sample was the primary sample for assessing efficacy. Completers comprised patients in the intent-to-treat sample who completed Week 52. The analysis of change from baseline to Week 52 was performed using analysis of covariance (ANCOVA). The primary model included effects due to treatment and center and baseline as covariate. Treatment-by-baseline and treatment-by-center interactions were also examined in supplemental models. For the primary comparisons of glyburide versus each combination, step-down tests for linear trend in dose response were performed based on the primary model. For the remaining primary pairwise comparisons of glyburide versus each monotherapy, t-tests were performed using the MSE from the analysis of covariance (with a Bonferroni-Holm adjustment). For all comparisons with glyburide, 95 confidence intervals are provided using Dunnett's test. […] For each patient, the baseline measurement for a given parameter was defined as the measurement at Week 0. […] The frequency distribution (number and percentage) of responders were provided by treatment group and visit. For the set of primary treatment comparisons concerning glyburide versus combination therapy, step-down comparisons of responders in each treatment group versus the glyburide group were performed by sequential application of the Cochran-Mantel-Haenszel (CMH) test for linear trend with study centers as strata. […] The CMH test for general association were also used to perform the secondary treatment comparisons as supplemental analysis.

[2] = system: lipid parameters (markers of lipid metabolism); experiment: Fasting serum lipid profile in 52-week clinical study; assay type: in vivo, patients; conditions: ITT, Week 52
Description: After an initial screening visit, patients meeting the inclusion criteria entered a 4-week baseline phase (unblinded) in which they received 12 mg micronized glyburide (6 mg BID).
Secondary efficacy parameters included markers of glycemic homeostasis (insulin and C-peptide) and markers of lipid metabolism (total cholesterol, total triglycerides, HDL, VLDL, LDL (measured), free fatty acids, Lp(a), Apo A1, and Apo B).
Efficacy analysis was performed on 2 patient populations, intent-to-treat and completers. […] Patients withdrawing from the study before Week 52 were included in the analysis using the LOCF procedure; the last measurement on treatment was substituted for the missing Week 52 measurement. The intent-to-treat patient sample was the primary sample for assessing efficacy. Completers comprised patients in the intent-to-treat sample who completed Week 52.
Summary statistics for baseline, follow-up (post-randomization), and change from baseline in secondary efficacy parameters were computed by treatment group and visit. For each patient, the baseline measurements for insulin, C-peptide, blood pressure, total cholesterol, triglycerides, LDL, HDL, VLDL, and free fatty acids were defined as the measurement at Week 0. In order to reduce variability, the baseline Apo A, Apo B, and Lp(a) levels were defined as the average of the respective measurements at Weeks -1 and 1. Similarly, the end-of-treatment Apo A, Apo B, and Lp(a) measurements were defined as the average of the respective measurements at Weeks 48 and 52. Averages from Weeks 20 and 24 were not carried forward for these special lipid parameters.
Fasting serum lipid profiles were determined at baseline and periodically through Week 52. Apo A1, Apo B, and Lp(a) were determined only at baseline, Month 6, and Month 12 as part of a special laboratory panel.

[3] = ITT, Week 52, glyburide (active control)
[4] = glyburide monotherapy (active control)

## COc1ccc(Cl)cc1C(=O)NCCc1ccc(S(=O)(=O)NC(=O)NC2CCCCC2)cc1 [Glyburide]
[1]; Completers, Week 52
  Fasting Serum Glucose, Adjusted Mean Change From Baseline (SE): 13.1 (8.6) mg/dL
  Hemoglobin A1c, Adjusted Mean Change From Baseline (SE): 0.78 (0.27) %
[1]; ITT, Week 52 (Month 12)
  Fasting Serum Glucose, Adjusted Mean Change From Baseline (SE): 22.7 (6.9) mg/dL
[1]; [3]
  ≥30 mg/dL Reduction in FSG, Responders, N (%): 10 (13) N (%)
  ≥1% Reduction in HbA1c, Responders, N (%): 4 (5) N (%)
[1]; ITT, Week 52
  Hemoglobin A1c, Adjusted Mean Change From Baseline (SE): 0.90 (0.20) %
[1]; ITT, Week 52, listed as glyburide
  Hemoglobin A1c, Adjusted Mean Change From Baseline (SE): 0.90%
[1]; Week 52, glyburide monotherapy
  patients with HbA1c of ≤7%: 1%
[1]; end of study, glyburide (active control)
  patients with HbA1c of ≤8%: 10%
[2]; Glynase (active control)
  LDL Cholesterol, Change From Baseline, Mean: 3.49 mg/dL
  LDL Cholesterol, Change From Baseline, Median: 4.00 mg/dL
  Total Cholesterol, Change From Baseline, Mean: 6.17 mg/dL
  Total Cholesterol, Change From Baseline, Median: 6.50 mg/dL
[2]; [4]
  Apo A1, Change From Baseline, Mean: -1.1 mg/dL
  Apo B, Change From Baseline, Mean: 2.9 mg/dL
  Free Fatty Acids, Change From Baseline, Mean: -0.05 mEq/L
  Free Fatty Acids, Change From Baseline, Median: 0.03 mEq/L
  HDL Cholesterol, Change From Baseline, Mean: -0.15 mg/dL
  HDL Cholesterol, Change From Baseline, Median: -1.00 mg/dL
  LP(a), Change From Baseline, Mean: 1.4 mg/dL
  Triglycerides, Change From Baseline, Mean: 14.24 mg/dL
  Triglycerides, Change From Baseline, Median: 8.00 mg/dL
  VLDL Cholesterol, Change From Baseline, Mean: -2.78 mg/dL
  VLDL Cholesterol, Change From Baseline, Median: -1.00 mg/dL
[2]; glyburide monotherapy (active control), listed as glyburide
  Triglycerides, Change From Baseline, Mean: 14 mg/dL
